Assay results from the NIST ThermoML archive (doi:10.1021/acs.jced.7b00996).
± gives the expanded uncertainty stated by the source.

Conditions: 100 kPa, Liquid; for viscosity: Capillary tube (Ostwald / Ubbelohde) method; for mass density: Vibrating tube method

Question: With `CCC(C)CO` (stereo unspecified) [2-methyl-1-butanol] as the compound, how does the viscosity (288.15 K) read?
Answer: 6.451 ± 0.13 mPa·s

Question: And the mass density (288.15 K)?
Answer: 823.02 ± 0.61 kg/m3

Question: And the viscosity (293.15 K)?
Answer: 5.285 ± 0.11 mPa·s

Question: What about the mass density (293.15 K) of the same compound?
Answer: 819.56 ± 0.61 kg/m3

Question: And the viscosity (298.15 K)?
Answer: 4.492 ± 0.093 mPa·s

Question: And the mass density (298.15 K)?
Answer: 815.82 ± 0.61 kg/m3

Question: And the viscosity (303.15 K)?
Answer: 3.813 ± 0.079 mPa·s

Question: What about the mass density (303.15 K) of the same compound?
Answer: 812.03 ± 0.61 kg/m3

Question: What about the viscosity (308.15 K) of the same compound?
Answer: 3.258 ± 0.068 mPa·s

Question: What about the mass density (308.15 K) of the same compound?
Answer: 808.2 ± 0.61 kg/m3

Question: And the viscosity (313.15 K)?
Answer: 2.777 ± 0.058 mPa·s

Question: What about the mass density (313.15 K) of the same compound?
Answer: 804.33 ± 0.61 kg/m3

Question: What about the viscosity (318.15 K) of the same compound?
Answer: 2.375 ± 0.049 mPa·s

Question: And the mass density (318.15 K)?
Answer: 800.39 ± 0.61 kg/m3

Question: What about the viscosity (323.15 K) of the same compound?
Answer: 2.057 ± 0.043 mPa·s

Question: What about the mass density (323.15 K) of the same compound?
Answer: 796.39 ± 0.61 kg/m3

Question: And the viscosity (328.15 K)?
Answer: 1.791 ± 0.037 mPa·s

Question: And the mass density (328.15 K)?
Answer: 792.34 ± 0.61 kg/m3

Question: What about the viscosity (333.15 K) of the same compound?
Answer: 1.573 ± 0.033 mPa·s

Question: What about the mass density (333.15 K) of the same compound?
Answer: 788.2 ± 0.61 kg/m3

Question: What about the viscosity (338.15 K) of the same compound?
Answer: 1.377 ± 0.029 mPa·s

Question: What about the mass density (338.15 K) of the same compound?
Answer: 783.84 ± 0.61 kg/m3

Question: Which viscosity (288.15 K) does the source give for `CCCCCO` [pentan-1-ol] here?
Answer: 4.7 ± 0.097 mPa·s

Question: And the mass density (288.15 K)?
Answer: 818.59 ± 0.61 kg/m3

Question: What about the viscosity (293.15 K) of the same compound?
Answer: 4.045 ± 0.084 mPa·s

Question: And the mass density (293.15 K)?
Answer: 814.89 ± 0.61 kg/m3

Question: And the viscosity (298.15 K)?
Answer: 3.49 ± 0.072 mPa·s

Question: And the mass density (298.15 K)?
Answer: 811.23 ± 0.61 kg/m3

Question: And the viscosity (303.15 K)?
Answer: 3.034 ± 0.063 mPa·s

Question: What about the mass density (303.15 K) of the same compound?
Answer: 807.55 ± 0.61 kg/m3

Question: What about the viscosity (308.15 K) of the same compound?
Answer: 2.674 ± 0.055 mPa·s

Question: And the mass density (308.15 K)?
Answer: 803.83 ± 0.61 kg/m3

Question: And the viscosity (313.15 K)?
Answer: 2.356 ± 0.049 mPa·s

Question: What about the mass density (313.15 K) of the same compound?
Answer: 800.08 ± 0.61 kg/m3

Question: And the viscosity (318.15 K)?
Answer: 2.052 ± 0.043 mPa·s

Question: And the mass density (318.15 K)?
Answer: 796.29 ± 0.61 kg/m3

Question: And the viscosity (323.15 K)?
Answer: 1.811 ± 0.038 mPa·s

Question: And the mass density (323.15 K)?
Answer: 792.46 ± 0.61 kg/m3

Question: What about the viscosity (328.15 K) of the same compound?
Answer: 1.609 ± 0.033 mPa·s

Question: And the mass density (328.15 K)?
Answer: 788.56 ± 0.61 kg/m3

Question: And the viscosity (333.15 K)?
Answer: 1.433 ± 0.03 mPa·s

Question: What about the mass density (333.15 K) of the same compound?
Answer: 784.66 ± 0.61 kg/m3

Question: And the viscosity (338.15 K)?
Answer: 1.284 ± 0.027 mPa·s

Question: What about the mass density (338.15 K) of the same compound?
Answer: 780.7 ± 0.61 kg/m3

Question: For `CCCC(C)O` (stereo unspecified) [pentan-2-ol], which viscosity (288.15 K) is on record?
Answer: 5.063 ± 0.11 mPa·s

Question: What about the mass density (288.15 K) of the same compound?
Answer: 813.55 ± 0.61 kg/m3

Question: And the viscosity (293.15 K)?
Answer: 4.172 ± 0.087 mPa·s

Question: And the mass density (293.15 K)?
Answer: 809.59 ± 0.61 kg/m3

Question: What about the viscosity (298.15 K) of the same compound?
Answer: 3.412 ± 0.071 mPa·s

Question: What about the mass density (298.15 K) of the same compound?
Answer: 805.55 ± 0.61 kg/m3

Question: What about the viscosity (303.15 K) of the same compound?
Answer: 2.825 ± 0.059 mPa·s

Question: What about the mass density (303.15 K) of the same compound?
Answer: 801.44 ± 0.61 kg/m3

Question: What about the viscosity (308.15 K) of the same compound?
Answer: 2.34 ± 0.049 mPa·s

Question: And the mass density (308.15 K)?
Answer: 797.25 ± 0.61 kg/m3

Question: What about the viscosity (313.15 K) of the same compound?
Answer: 1.993 ± 0.041 mPa·s

Question: What about the mass density (313.15 K) of the same compound?
Answer: 792.98 ± 0.61 kg/m3

Question: And the viscosity (318.15 K)?
Answer: 1.704 ± 0.035 mPa·s

Question: What about the mass density (318.15 K) of the same compound?
Answer: 788.63 ± 0.61 kg/m3

Question: And the viscosity (323.15 K)?
Answer: 1.475 ± 0.031 mPa·s

Question: And the mass density (323.15 K)?
Answer: 784.19 ± 0.61 kg/m3

Question: And the viscosity (328.15 K)?
Answer: 1.303 ± 0.027 mPa·s

Question: What about the mass density (328.15 K) of the same compound?
Answer: 779.67 ± 0.61 kg/m3

Question: What about the viscosity (333.15 K) of the same compound?
Answer: 1.135 ± 0.024 mPa·s

Question: And the mass density (333.15 K)?
Answer: 775.07 ± 0.61 kg/m3

Question: And the viscosity (338.15 K)?
Answer: 1.012 ± 0.021 mPa·s

Question: And the mass density (338.15 K)?
Answer: 770.37 ± 0.61 kg/m3
